Measured values: patent US11926614B2, “1,2,4-triazole derivatives as tankyrase inhibitors” (priority 2018, dated 2024)
Like-named read-outs stand apart in the source and are kept apart here.

Experiments:
TNKS2 = TNKS2 (Homo sapiens (Human), UniProt Q9H2K2); assay: Biochemical IC50 TNKS2
Excerpt: (§1) XLfit (idbs) was used to determine the IC50-values in inhibition experiments. The following formula was chosen to fit the data points (Langmuir Binding Isotherm): fit=((A+(B*x))+4(C−B)*(1−exp((−1*D)*x)))/D)), res=(y−fit)

HEK293 = assay: Cellular IC50 HEK293; type: cell-based
Excerpt: as §1

[1] = read-out: Biochemical IC50 TNKS2
[2] = Homo sapiens, HEK293, HEK293; read-out: Cellular IC50 HEK293

Chain of TNKS2 (Q9H2K2 whole entry): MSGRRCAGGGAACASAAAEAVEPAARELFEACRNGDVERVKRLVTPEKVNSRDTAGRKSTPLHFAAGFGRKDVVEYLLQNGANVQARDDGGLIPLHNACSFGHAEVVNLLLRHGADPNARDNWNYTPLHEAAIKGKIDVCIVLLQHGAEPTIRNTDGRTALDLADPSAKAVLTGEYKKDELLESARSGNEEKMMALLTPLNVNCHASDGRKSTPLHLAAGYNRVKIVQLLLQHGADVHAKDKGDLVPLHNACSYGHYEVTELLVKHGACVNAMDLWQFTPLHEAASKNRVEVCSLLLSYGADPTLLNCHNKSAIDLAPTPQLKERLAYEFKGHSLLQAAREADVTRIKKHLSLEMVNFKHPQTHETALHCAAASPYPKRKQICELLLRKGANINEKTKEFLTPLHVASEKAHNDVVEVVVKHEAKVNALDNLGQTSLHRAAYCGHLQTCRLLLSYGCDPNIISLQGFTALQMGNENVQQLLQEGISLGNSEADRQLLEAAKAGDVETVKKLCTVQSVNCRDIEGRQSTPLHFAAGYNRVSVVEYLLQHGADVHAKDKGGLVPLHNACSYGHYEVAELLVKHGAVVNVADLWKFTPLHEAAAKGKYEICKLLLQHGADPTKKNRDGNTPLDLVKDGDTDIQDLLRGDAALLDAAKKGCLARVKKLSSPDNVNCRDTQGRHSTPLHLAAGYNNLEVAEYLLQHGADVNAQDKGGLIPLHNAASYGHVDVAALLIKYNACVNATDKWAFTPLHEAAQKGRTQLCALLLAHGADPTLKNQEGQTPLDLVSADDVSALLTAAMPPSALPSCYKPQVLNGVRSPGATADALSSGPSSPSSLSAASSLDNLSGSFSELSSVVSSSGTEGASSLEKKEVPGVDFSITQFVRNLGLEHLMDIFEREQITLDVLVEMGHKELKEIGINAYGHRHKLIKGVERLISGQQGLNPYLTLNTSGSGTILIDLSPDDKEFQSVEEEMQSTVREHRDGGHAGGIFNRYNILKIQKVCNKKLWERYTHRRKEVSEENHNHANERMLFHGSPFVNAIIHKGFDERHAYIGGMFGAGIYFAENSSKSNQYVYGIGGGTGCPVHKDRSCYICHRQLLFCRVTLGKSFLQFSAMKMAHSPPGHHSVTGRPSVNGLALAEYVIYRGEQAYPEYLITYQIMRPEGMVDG

CS(=O)(=O)c1ccc(-c2nnc([C@H]3C[C@H](NC(=O)c4ccc(F)cn4)C3)n2-c2ccccc2F)nc1 [Example 107, 5-fluoro-N-((1S,3r)-3-(4-(2-fluorophenyl)-5-(5-(methylsulfonyl)pyridin-2-yl)-4H-1,2,4-triazol-3-yl)cyclobutyl) picolinamide]
IC50 (TNKS2; [1]): 5.7 nM | IC50 (HEK293; [2]): 32 nM

O=C(N[C@H]1C[C@H](c2nnc(-c3ccc(OC(F)F)cn3)n2-c2ccccc2F)C1)c1cccc2nccnc12 [Example 185, N-((1S,3r)-3-(5-(5-(difluoromethoxy)pyridin-2-yl)-4-(2-fluorophenyl)-4H-1,2,4-triazol-3-yl)cyclobutyl)quinoxaline-5-carboxamide]
IC50 (TNKS2; [1]): 1.9 nM | IC50 (HEK293; Homo sapiens, HEK293, read-out: Cellular IC50 HEK293): 1.2 nM

O=C(N[C@H]1C[C@H](c2nnc(-c3ccc(OC(F)F)cn3)n2-c2ccccc2F)C1)c1ccc2cnccc2n1 [Example 184, N-((1S,3r)-3-(5-(5-(difluoromethoxy)pyridin-2-yl)-4-(2-fluorophenyl)-4H-1,2,4-triazol-3-yl)cyclobutyl)-1,6-naphthyridine-2-carboxamide]
IC50 (TNKS2; [1]): 3.4 nM | IC50 (HEK293; [2]): 10 nM

CCOc1ccc(-c2nnc([C@H]3C[C@H](NC(=O)c4cc5occc5[nH]4)C3)n2-c2ccccc2F)nc1 [Example 151, N-((1S,3r)-3-(5-(5-ethoxypyridin-2-yl)-4-(2-fluorophenyl)-4H-1,2,4-triazol-3-yl)cyclobutyl)-4H-furo[3,2-13]pyrrole-5-carboxamide]
IC50 (TNKS2; [1]): 14 nM | IC50 (HEK293; [2]): 35 nM

CCOc1ccc(-c2nnc(C34CC(NC(=O)c5ccnc6cccnc56)(C3)C4)n2-c2ccccc2)nc1 [Example 64, N-(3-(5-(5-ethoxypyridin-2-yl)-4-phenyl-4H-1,2,4-triazol-3-yl)bicyclo[1.1.1]pentan-1-yl)-1,5-naphthyridine-4-carboxamide]
IC50 (TNKS2; [1]): 1.4 nM | IC50 (HEK293; [2]): 3 nM

O=C(N[C@H]1C[C@H](c2nnc(-c3ccncn3)n2-c2ccccc2Cl)C1)c1ccccc1 [Example 12, N-((1S,3r)-3-(4-(2-chlorophenyl)-5-(pyrimidin-4-yl)-4H-1,2,4-triazol-3-yl)cyclobutyl)benzamide]
IC50 (TNKS2; [1]): 5.5 nM | IC50 (HEK293; [2]): 3 nM

CCOc1ccc(-c2nnc([C@H]3C[C@H](NC(=O)c4cc5cccnc5[nH]4)C3)n2-c2ccccc2F)nc1 [Example 152, N-((1S,3r)-3-(5-(5-ethoxypyridin-2-yl)-4-(2-fluorophenyl)-4H-1,2,4-triazol-3-yl)cyclobutyl)-1H-pyrrolo[2,3-b]pyridine-2-carboxamide]
IC50 (TNKS2; [1]): 19 nM | IC50 (HEK293; [2]): 144 nM

O=C(N[C@H]1C[C@H](c2nnc(-c3ccncn3)n2-c2ccccc2Cl)C1)c1ccncc1 [Example 8, N-((1S,3r)-3-(4-(2-chlorophenyl)-5-(pyrimidin-4-yl)-4H-1,2,4-triazol-3-yl)cyclobutyl)isonicotinamide]
IC50 (TNKS2; [1]): 57 nM | IC50 (HEK293; [2]): 70 nM

O=C(N[C@H]1C[C@H](c2nnc(-c3nccs3)n2-c2ccccc2F)C1)c1ccc(F)cc1 [Example 28, 4-fluoro-N-((1S,3r)-3-(4-(2-fluorophenyl)-5-(thiazol-2-yl)-4H-1,2,4-triazol-3-yl)cyclobutyl)benzamide]
IC50 (TNKS2; [1]): 51 nM | IC50 (HEK293; [2]): 240 nM

O=C(N[C@H]1C[C@H](c2nnc(-c3nccs3)n2-c2ccncc2)C1)c1cccc2cccnc12 [Example 146, N-((1r,3r)-3-(4-(pyridin-4-yl)-5-(thiazol-2-yl)-4H-1,2,4-triazol-3-yl)cyclobutyl)quinoline-8-carboxamide]
IC50 (TNKS2; [1]): 16 nM | IC50 (HEK293; [2]): 80 nM

CCOc1ccc(-c2nnc([C@H]3C[C@H](NC(=O)c4ccc5ccccc5n4)C3)n2-c2ccccc2F)nc1 [Example 104, N-((1S,3r)-3-(5-(5-ethoxypyridin-2-yl)-4-(2-fluorophenyl)-4H-1,2,4-triazol-3-yl)cyclobutyl)quinoline-2-carboxamide]
IC50 (TNKS2; [1]): 6.4 nM | IC50 (HEK293; [2]): 14 nM

O=C(N[C@H]1C[C@H](c2nnc(-c3ccncn3)n2-c2ccccc2Cl)C1)c1cccc(F)c1 [Example 14, N-((1S,3r)-3-(4-(2-chlorophenyl)-5-(pyrimidin-4-yl)-4H-1,2,4-triazol-3-yl)cyclobutyl)-3-fluorobenzamide]
IC50 (TNKS2; [1]): 6.7 nM | IC50 (HEK293; [2]): 40 nM

[2H]C([2H])([2H])C([2H])([2H])Oc1ccc(-c2nnc([C@H]3C[C@H](NC(=O)c4cnn5ccccc45)C3)n2-c2ccccc2F)nc1 [Example 142, N-((1S,3r)-3-(5-(5-(ethoxy-d5)pyridin-2-yl)-4-(2-fluorophenyl)-4H-1,2,4-triazol-3-yl)cyclobutyl)pyrazolo[1,5-a]pyridine-3-carboxamide]
IC50 (TNKS2): 23 nM | IC50 (HEK293; [2]): 55 nM

CCOc1ccc(-c2nnc([C@H]3C[C@H](NC(=O)c4cccc5cn[nH]c45)C3)n2-c2ccccc2F)nc1 [Example 156, N-((1S,3r)-3-(5-(5-ethoxypyridin-2-yl)-4-(2-fluorophenyl)-4H-1,2,4-triazol-3-yl)cyclobutyl)-1H-indazole-7-carboxamide]
IC50 (TNKS2; [1]): 21 nM | IC50 (HEK293; [2]): 67 nM

O=C(N[C@H]1C[C@H](c2nnc(-c3ccncn3)n2-c2ccccc2Cl)C1)c1ccccc1F [Example 13, N-((1S,3r)-3-(4-(2-chlorophenyl)-5-(pyrimidin-4-yl)-4H-1,2,4-triazol-3-yl)cyclobutyl)-2-fluorobenzamide]
IC50 (TNKS2; [1]): 6.4 nM | IC50 (HEK293; [2]): 30 nM

CCOc1ccc(-c2nnc(C34CC(NC(=O)c5ccnc6cc(F)cnc56)(C3)C4)n2-c2ccc(C)s2)nc1 [Example 86, N-(3-(5-(5-ethoxypyridin-2-yl)-4-(5-methylthiophen-2-yl)-4H-1,2,4-triazol-3-yl)bicyclo[1.1.1]pentan-1-yl)-7-fluoro-1,5-naphthyridine-4-carboxamide]
IC50 (TNKS2; [1]): 2.2 nM | IC50 (HEK293; [2]): 1.7 nM

CCOc1ccc(-c2nnc([C@H]3C[C@H](NC(=O)c4ccnc5cccnc45)C3)n2-c2ccccc2F)nc1 [Example 55, N-((1S,3r)-3-(5-(5-ethoxypyridin-2-yl)-4-(2-fluorophenyl)-4H-1,2,4-triazol-3-yl)cyclobutyl)-1,5-naphthyridine-4-carboxamide]
IC50 (TNKS2; [1]): 2 nM | IC50 (HEK293; Homo sapiens, HEK293; read-out: Cellular IC50 HEK293): 0.814 nM

O=C(N[C@H]1C[C@H](c2nnc(-c3nccs3)n2-c2ccccn2)C1)c1ccnc2cccnc12 [Example 37, N-((1r,3r)-3-(4-(pyridin-2-yl)-5-(thiazol-2-yl)-4H-1,2,4-triazol-3-yl)cyclobutyl)-1,5-naphthyridine-4-carboxamide]
IC50 (TNKS2; [1]): 25 nM | IC50 (HEK293; [2]): 88 nM

O=C(N[C@H]1C[C@H](c2nnc(-c3ccncn3)n2-c2ccccc2Cl)C1)c1cccc(F)n1 [Example 19, N-((1S,3r)-3-(4-(2-chlorophenyl)-5-(pyrimidin-4-yl)-4H-1,2,4-triazol-3-yl)cyclobutyl)-6-fluoropicolinamide]
IC50 (TNKS2; [1]): 3 nM | IC50 (HEK293; [2]): 0.86 nM

O=C(N[C@H]1C[C@H](c2nnc(-c3nccs3)n2-c2ccccc2Cl)C1)c1ccccc1 [Example 43, N-((1S,3r)-3-(4-(2-chlorophenyl)-5-(thiazol-2-yl)-4H-1,2,4-triazol-3-yl)cyclobutyl)benzamide]
IC50 (TNKS2; [1]): 7.9 nM | IC50 (HEK293; [2]): 82 nM

O=C(N[C@H]1C[C@H](c2nnc(-c3ccncn3)n2-c2ccccc2Cl)C1)c1ccnc2ccccc12 [Example 6, N-((1S,3r)-3-(4-(2-chlorophenyl)-5-(pyrimidin-4-yl)-4H-1,2,4-triazol-3-yl)cyclobutyl)quinoline-4-carboxamide]
IC50 (TNKS2; [1]): 680 nM | IC50 (HEK293; [2]): 1300 nM
